What was measured:
Format in all cases: in vivo
[1] = test system: barnyardgrass (Echinochloa crus-galli); assay: Test E greenhouse herbicide test, pre- and postemergence
Method in brief: (§1)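 Seeds were sown in silt loam and sprayed preemergence with compound in a non-phytotoxic solvent mix containing surfactant; for postemergence, plants at 2 to 18 cm (1- to 4-leaf stage) in peat-based potting medium were sprayed with the same formulation. After 14 to 21 d in a greenhouse, injury was rated visually against controls (0–100).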

[2] = test system: pigweed, palmer (palmer pigweed, Amaranthus palmeri); assay: as above
Method in brief: as §1

[3] = test system: beggarticks (hairy beggarticks, Bidens pilosa); assay: as above
Method in brief: as §1

[4] = test system: crabgrass, large (large crabgrass, Digitaria sanguinalis); assay: as above; conditions: Preemergence
Method in brief: as §1

[5] = test system: goosegrass (Eleusine indica); assay: as above; conditions: Preemergence
Method in brief: as §1

kochia (Kochia scoparia) = assay: as above
Method in brief: as §1

[6] = test system: crabgrass, Brazilian (Brazilian crabgrass, Digitaria horizontalis); assay: as above
Method in brief: as §1

[7] = test system: dayflower (Virginia (VA) dayflower, Commelina virginica); assay: as above
Method in brief: as §1

soybean (Glycine max) = assay: as above
Method in brief: as §1

[8] = test system: Italian ryegrass (Lolium multiflorum); assay: as above
Method in brief: as §1

[9] = test system: ragweed (common ragweed, Ambrosia elatior); assay: as above
Method in brief: as §1

[10] = test system: sandbur (southem sandbur, Cenchrus echinatus); assay: as above
Method in brief: as §1

[11] = test system: horseweed (Conyza canadensis); assay: as above; conditions: Postemergence
Method in brief: as §1

[12] = test system: waterhemp_RES1 (ALS & Triazine resistant common waterhemp, Amaranthus rudis); assay: Test E greenhouse herbicide test, postemergence
Method in brief: (§2)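 Values are visual ratings from 0 (no effect) to 100 (complete control), scored relative to untreated controls 14 to 21 d after treatment. Plants were 1- to 4-leaf seedlings (2 to 18 cm) in potting medium and received postemergence applications of formulated test chemicals.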

[13] = test system: waterhemp_RES2 (ALS & HPPD resistant common waterhemp, Amaranthus rudis); assay: Test E greenhouse herbicide test, postemergence
Method in brief: as §2

[14] = 62 g ai/ha, Postemergence, scale 0 to 100 (0 no effect, 100 complete control)
[15] = 62 g ai/ha, Preemergence, scale 0 to 100 (0 no effect, 100 complete control)
[16] = 125 g ai/ha, Postemergence, scale 0 to 100 (0 no effect, 100 complete control)
[17] = 125 g ai/ha, Preemergence, scale 0 to 100 (0 no effect, 100 complete control)
[18] = 250 g ai/ha, Postemergence, scale 0 to 100 (0 no effect, 100 complete control)
[19] = Postemergence, 31 g ai/ha, visual, scale 0 no effect to 100 complete control
[20] = Preemergence, 31 g ai/ha, scale 0 to 100, 0 no effect, 100 complete control
[21] = Preemergence, 250 g ai/ha, visual, scale 0 no effect to 100 complete control
[22] = 62 g ai/ha, scale 0 to 100 (0 no effect, 100 complete control)
[23] = 125 g ai/ha, scale 0 to 100 (0 no effect, 100 complete control)
[24] = 31 g ai/ha, scale 0 to 100, 0 no effect, 100 complete control
[25] = 250 g ai/ha, visual, scale 0 no effect to 100 complete control
[26] = 250 g ai/ha, scale 0 to 100 (0 no effect, 100 complete control)
[27] = 31 g ai/ha, visual, scale 0 no effect to 100 complete control

Cc1nn(C)c(=O)c(-c2ccc(Br)c3ccccc23)c1O [Compound 75]
Plant response rating, Barnyardgrass [1, 14]: 30
Plant response rating, Barnyardgrass [1, 15]: 20
Plant response rating, Barnyardgrass [1, 16]: 25
Plant response rating, Barnyardgrass [1, 17]: 35
Plant response rating, Barnyardgrass [1, 18]: 30
Plant response rating, Barnyardgrass [1, 19]: 20
Plant response rating, Barnyardgrass [1, 20]: 20
Plant response rating, Barnyardgrass [1, 21]: 65
Plant response rating, Pigweed, Palmer [2, 14]: 70
Plant response rating, Pigweed, Palmer [2, 15]: 85
Plant response rating, Pigweed, Palmer [2, 16]: 100
Plant response rating, Pigweed, Palmer [2, 17]: 50
Plant response rating, Pigweed, Palmer [2, 18]: 100
Plant response rating, Pigweed, Palmer [2, 19]: 70
Plant response rating, Pigweed, Palmer [2, 20]: 30
Plant response rating, Pigweed, Palmer [2, 21]: 100
Plant response rating, Beggarticks [3, 14]: 95
Plant response rating, Beggarticks [3, 15]: 80
Plant response rating, Beggarticks [3, 16]: 100
Plant response rating, Beggarticks [3, 17]: 100
Plant response rating, Beggarticks [3, 18]: 100
Plant response rating, Beggarticks [3, 19]: 100
Plant response rating, Beggarticks [3, 20]: 35
Plant response rating, Beggarticks [3, 21]: 100
Plant response rating, Crabgrass, Large [4, 22]: 0
Plant response rating, Crabgrass, Large [4, 23]: 0
Plant response rating, Crabgrass, Large [4, 24]: 0
Plant response rating, Crabgrass, Large [4, 25]: 30
Plant response rating, Goosegrass [5, 22]: 0
Plant response rating, Goosegrass [5, 23]: 0
Plant response rating, Goosegrass [5, 24]: 0
Plant response rating, Goosegrass [5, 25]: 5
Plant response rating, Kochia (kochia (Kochia scoparia); [14]): 98
Plant response rating, Kochia (kochia (Kochia scoparia); [15]): 100
Plant response rating, Kochia (kochia (Kochia scoparia); [16]): 100
Plant response rating, Kochia (kochia (Kochia scoparia); [17]): 100
Plant response rating, Kochia (kochia (Kochia scoparia); [18]): 100
Plant response rating, Kochia (kochia (Kochia scoparia); [19]): 90
Plant response rating, Kochia (kochia (Kochia scoparia); [20]): 98
Plant response rating, Kochia (kochia (Kochia scoparia); [21]): 100
Plant response rating, Crabgrass, Brazil [6, 14]: 40
Plant response rating, Crabgrass, Brazil [6, 15]: 20
Plant response rating, Crabgrass, Brazil [6, 16]: 50
Plant response rating, Crabgrass, Brazil [6, 17]: 90
Plant response rating, Crabgrass, Brazil [6, 18]: 50
Plant response rating, Crabgrass, Brazil [6, 19]: 40
Plant response rating, Crabgrass, Brazil [6, 20]: 0
Plant response rating, Crabgrass, Brazil [6, 21]: 90
Plant response rating, Dayflower, VA [7, 14]: 50
Plant response rating, Dayflower, VA [7, 15]: 10
Plant response rating, Dayflower, VA [7, 16]: 50
Plant response rating, Dayflower, VA [7, 17]: 60
Plant response rating, Dayflower, VA [7, 18]: 65
Plant response rating, Dayflower, VA [7, 19]: 30
Plant response rating, Dayflower, VA [7, 20]: 10
Plant response rating, Dayflower, VA [7, 21]: 75
Plant response rating, Soybean (soybean (Glycine max); [14]): 70
Plant response rating, Soybean (soybean (Glycine max); [15]): 35
Plant response rating, Soybean (soybean (Glycine max); [16]): 70
Plant response rating, Soybean (soybean (Glycine max); [17]): 40
Plant response rating, Soybean (soybean (Glycine max); [18]): 75
Plant response rating, Soybean (soybean (Glycine max); [19]): 70
Plant response rating, Soybean (soybean (Glycine max); [20]): 0
Plant response rating, Soybean (soybean (Glycine max); [21]): 70
Plant response rating, Ryegrass, Italian [8, 14]: 80
Plant response rating, Ryegrass, Italian [8, 15]: 100
Plant response rating, Ryegrass, Italian [8, 16]: 85
Plant response rating, Ryegrass, Italian [8, 17]: 100
Plant response rating, Ryegrass, Italian [8, 18]: 90
Plant response rating, Ryegrass, Italian [8, 19]: 75
Plant response rating, Ryegrass, Italian [8, 20]: 100
Plant response rating, Ryegrass, Italian [8, 21]: 100
Plant response rating, Ragweed [9, 14]: 70
Plant response rating, Ragweed [9, 15]: 65
Plant response rating, Ragweed [9, 16]: 60
Plant response rating, Ragweed [9, 17]: 80
Plant response rating, Ragweed [9, 18]: 90
Plant response rating, Ragweed [9, 19]: 55
Plant response rating, Ragweed [9, 20]: 35
Plant response rating, Ragweed [9, 21]: 100
Plant response rating, Sandbur [10, 14]: 20
Plant response rating, Sandbur [10, 15]: 10
Plant response rating, Sandbur [10, 16]: 20
Plant response rating, Sandbur [10, 17]: 40
Plant response rating, Sandbur [10, 18]: 30
Plant response rating, Sandbur [10, 19]: 10
Plant response rating, Sandbur [10, 20]: 0
Plant response rating, Sandbur [10, 21]: 70
Plant response rating, Horseweed [11, 22]: 50
Plant response rating, Horseweed [11, 23]: 60
Plant response rating, Horseweed [11, 26]: 50
Plant response rating, Horseweed [11, 27]: 40
Plant response rating, Waterhemp_RES1 [12, 27]: 90
Plant response rating, Waterhemp_RES1 [12, 22]: 90
Plant response rating, Waterhemp_RES1 [12, 23]: 95
Plant response rating, Waterhemp_RES1 [12, 26]: 90
Plant response rating, Waterhemp_RES2 [13, 27]: 60
Plant response rating, Waterhemp_RES2 [13, 22]: 60
Plant response rating, Waterhemp_RES2 [13, 23]: 60
Plant response rating, Waterhemp_RES2 [13, 26]: 75
